ChEMBL document CHEMBL1821675, “The selective P-TEFb inhibitor CAN508 targets angiogenesis” (Eur J Med Chem, 2011)

Legend:
[1] = biological target: Serine/threonine-protein kinase Chk1 (Homo sapiens) (UniProt O14757); experiment: Inhibition of CHK1 assessed as residual activity at 10 uM by radioactivity assay in presence of 20 uM ATP
[2] = biological target: Cyclin-dependent kinase 9 (Homo sapiens) (UniProt P50750); experiment: Inhibition of CDK9-catalyzed RNA polymerase 2 phosphorylation at Ser2 in human MCF7 cells after 2 hrs by immunoblotting; assay type: cell-based
Cyclin-dependent kinase 9 (Homo sapiens), sequence (P50750 whole entry): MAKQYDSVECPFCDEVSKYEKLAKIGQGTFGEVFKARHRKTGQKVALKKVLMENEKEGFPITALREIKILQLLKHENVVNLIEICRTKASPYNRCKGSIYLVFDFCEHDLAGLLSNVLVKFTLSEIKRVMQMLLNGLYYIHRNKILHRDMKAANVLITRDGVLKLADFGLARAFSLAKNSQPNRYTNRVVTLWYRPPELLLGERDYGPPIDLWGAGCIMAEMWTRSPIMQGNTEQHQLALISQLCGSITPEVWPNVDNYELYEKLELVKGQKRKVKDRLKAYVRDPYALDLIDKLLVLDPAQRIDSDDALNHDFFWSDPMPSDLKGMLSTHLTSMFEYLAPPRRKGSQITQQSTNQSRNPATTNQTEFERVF

[3] = biological target: Mitogen-activated protein kinase 15 (Homo sapiens) (UniProt Q8TD08); experiment: Inhibition of ERK8 assessed as residual activity at 10 uM by radioactivity assay in presence of 5 uM ATP
[4] = biological target: Phosphorylase b kinase gamma catalytic chain, skeletal muscle/heart isoform (Homo sapiens) (UniProt Q16816); experiment: Inhibition of PHKG1 assessed as residual activity at 10 uM by radioactivity assay in presence of 50 uM ATP
Phosphorylase b kinase gamma catalytic chain, skeletal muscle/heart isoform (Homo sapiens), sequence (Q16816 whole entry, looked up, canonical isoform): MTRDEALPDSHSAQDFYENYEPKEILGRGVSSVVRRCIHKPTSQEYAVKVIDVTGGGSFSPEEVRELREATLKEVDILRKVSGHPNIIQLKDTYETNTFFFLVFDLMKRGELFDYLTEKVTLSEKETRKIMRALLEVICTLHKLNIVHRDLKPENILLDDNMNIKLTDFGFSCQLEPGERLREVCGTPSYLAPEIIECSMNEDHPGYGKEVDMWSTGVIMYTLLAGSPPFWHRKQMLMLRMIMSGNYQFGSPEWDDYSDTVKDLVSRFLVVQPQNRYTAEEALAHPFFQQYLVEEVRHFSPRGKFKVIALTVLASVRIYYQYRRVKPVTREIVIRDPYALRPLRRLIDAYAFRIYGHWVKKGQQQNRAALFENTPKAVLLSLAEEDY

[5] = biological target: Cyclin-dependent kinase 9 (Homo sapiens) (UniProt P50750); experiment: Inhibition of CDK9-catalyzed RNA polymerase 2 phosphorylation at Ser2 in human HMEC1 cells after 2 hrs by immunoblotting; assay type: cell-based
[6] = biological target: Ephrin type-B receptor 3 (Homo sapiens) (UniProt P54753); experiment: Inhibition of EPH-B3 assessed as residual activity at 10 uM by radioactivity assay in presence of 20 uM ATP
Ephrin type-B receptor 3 (Homo sapiens), sequence (P54753 whole entry): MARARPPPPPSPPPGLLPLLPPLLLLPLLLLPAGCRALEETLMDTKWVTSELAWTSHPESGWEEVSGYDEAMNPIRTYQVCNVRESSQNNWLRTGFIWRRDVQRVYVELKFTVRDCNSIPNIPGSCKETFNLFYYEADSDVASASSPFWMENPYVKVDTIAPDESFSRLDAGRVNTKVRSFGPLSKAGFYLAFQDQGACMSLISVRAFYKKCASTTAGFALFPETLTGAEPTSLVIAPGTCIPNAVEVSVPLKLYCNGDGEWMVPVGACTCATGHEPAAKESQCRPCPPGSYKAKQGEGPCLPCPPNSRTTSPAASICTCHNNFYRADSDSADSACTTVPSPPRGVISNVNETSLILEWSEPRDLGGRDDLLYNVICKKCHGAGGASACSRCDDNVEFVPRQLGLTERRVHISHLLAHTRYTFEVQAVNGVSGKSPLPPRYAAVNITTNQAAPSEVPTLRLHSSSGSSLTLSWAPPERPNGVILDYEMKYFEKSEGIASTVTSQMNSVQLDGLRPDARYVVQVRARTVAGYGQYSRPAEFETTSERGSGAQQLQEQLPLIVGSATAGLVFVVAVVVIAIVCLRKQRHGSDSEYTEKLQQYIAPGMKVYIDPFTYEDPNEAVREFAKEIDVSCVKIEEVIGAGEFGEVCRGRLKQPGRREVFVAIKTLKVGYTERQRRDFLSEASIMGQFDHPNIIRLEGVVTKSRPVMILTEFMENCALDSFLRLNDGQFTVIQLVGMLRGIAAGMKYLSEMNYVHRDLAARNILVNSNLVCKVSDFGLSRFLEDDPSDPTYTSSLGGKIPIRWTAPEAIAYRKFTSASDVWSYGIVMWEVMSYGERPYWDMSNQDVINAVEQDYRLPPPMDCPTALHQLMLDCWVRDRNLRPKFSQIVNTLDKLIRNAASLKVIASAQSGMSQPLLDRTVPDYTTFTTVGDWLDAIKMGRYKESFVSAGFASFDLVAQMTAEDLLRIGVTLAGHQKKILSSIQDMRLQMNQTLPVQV

[7] = biological target: Homeodomain-interacting protein kinase 3 (Homo sapiens) (UniProt Q9H422); experiment: Inhibition of HIPK3 assessed as residual activity at 10 uM by radioactivity assay in presence of 20 uM ATP
Homeodomain-interacting protein kinase 3 (Homo sapiens), sequence (Q9H422 whole entry, looked up): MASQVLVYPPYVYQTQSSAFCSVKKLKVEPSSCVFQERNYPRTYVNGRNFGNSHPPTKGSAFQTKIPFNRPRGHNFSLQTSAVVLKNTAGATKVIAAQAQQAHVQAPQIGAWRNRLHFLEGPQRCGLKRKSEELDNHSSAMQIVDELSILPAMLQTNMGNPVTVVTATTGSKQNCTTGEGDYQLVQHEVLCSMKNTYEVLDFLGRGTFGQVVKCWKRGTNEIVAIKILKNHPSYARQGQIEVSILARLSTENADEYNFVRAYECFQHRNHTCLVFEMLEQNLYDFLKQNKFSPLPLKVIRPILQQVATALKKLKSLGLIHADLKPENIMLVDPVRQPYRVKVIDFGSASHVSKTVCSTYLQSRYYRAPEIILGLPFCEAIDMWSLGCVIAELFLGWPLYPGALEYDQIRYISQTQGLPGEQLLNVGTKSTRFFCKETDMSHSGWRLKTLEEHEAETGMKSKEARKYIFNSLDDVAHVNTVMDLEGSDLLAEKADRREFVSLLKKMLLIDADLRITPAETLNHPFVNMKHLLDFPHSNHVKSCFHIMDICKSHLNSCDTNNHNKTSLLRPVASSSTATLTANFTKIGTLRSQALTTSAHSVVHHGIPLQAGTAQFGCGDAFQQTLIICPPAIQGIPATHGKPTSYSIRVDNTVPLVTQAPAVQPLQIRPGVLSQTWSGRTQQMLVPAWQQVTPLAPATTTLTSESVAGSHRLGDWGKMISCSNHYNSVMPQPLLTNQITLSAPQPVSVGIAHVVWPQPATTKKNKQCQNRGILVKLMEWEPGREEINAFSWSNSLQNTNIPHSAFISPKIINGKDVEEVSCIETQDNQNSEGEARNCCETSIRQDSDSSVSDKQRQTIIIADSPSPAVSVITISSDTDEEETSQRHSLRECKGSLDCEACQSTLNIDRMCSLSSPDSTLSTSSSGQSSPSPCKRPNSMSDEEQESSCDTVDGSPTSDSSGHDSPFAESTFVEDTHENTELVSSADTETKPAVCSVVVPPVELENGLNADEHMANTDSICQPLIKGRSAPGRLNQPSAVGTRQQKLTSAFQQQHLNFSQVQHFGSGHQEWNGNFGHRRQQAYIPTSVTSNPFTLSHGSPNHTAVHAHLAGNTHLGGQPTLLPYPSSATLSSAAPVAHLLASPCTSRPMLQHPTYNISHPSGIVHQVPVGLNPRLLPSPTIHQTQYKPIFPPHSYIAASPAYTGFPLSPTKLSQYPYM

[8] = Inhibition of TNF-alpha-induced Nuclear factor-kappa-B-mediated ICAM-1 expression in human HMEC1 cells after 24 hrs by FACS analysis; assay type: cell-based; conditions: HMEC-1, 24 h
MCF7 = experiment: Inhibition of RNA synthesis in human MCF7 cells assessed as decrease in [3H] Uridine incorporation after 2 hrs by scintillation counting; assay type: functional, cell-based
[9] = biological target: Serine/threonine-protein kinase D1 (Homo sapiens) (UniProt Q15139); experiment: Inhibition of PKD1 assessed as residual activity at 10 uM by radioactivity assay in presence of 50 uM ATP
Serine/threonine-protein kinase D1 (Homo sapiens), sequence (Q15139 whole entry): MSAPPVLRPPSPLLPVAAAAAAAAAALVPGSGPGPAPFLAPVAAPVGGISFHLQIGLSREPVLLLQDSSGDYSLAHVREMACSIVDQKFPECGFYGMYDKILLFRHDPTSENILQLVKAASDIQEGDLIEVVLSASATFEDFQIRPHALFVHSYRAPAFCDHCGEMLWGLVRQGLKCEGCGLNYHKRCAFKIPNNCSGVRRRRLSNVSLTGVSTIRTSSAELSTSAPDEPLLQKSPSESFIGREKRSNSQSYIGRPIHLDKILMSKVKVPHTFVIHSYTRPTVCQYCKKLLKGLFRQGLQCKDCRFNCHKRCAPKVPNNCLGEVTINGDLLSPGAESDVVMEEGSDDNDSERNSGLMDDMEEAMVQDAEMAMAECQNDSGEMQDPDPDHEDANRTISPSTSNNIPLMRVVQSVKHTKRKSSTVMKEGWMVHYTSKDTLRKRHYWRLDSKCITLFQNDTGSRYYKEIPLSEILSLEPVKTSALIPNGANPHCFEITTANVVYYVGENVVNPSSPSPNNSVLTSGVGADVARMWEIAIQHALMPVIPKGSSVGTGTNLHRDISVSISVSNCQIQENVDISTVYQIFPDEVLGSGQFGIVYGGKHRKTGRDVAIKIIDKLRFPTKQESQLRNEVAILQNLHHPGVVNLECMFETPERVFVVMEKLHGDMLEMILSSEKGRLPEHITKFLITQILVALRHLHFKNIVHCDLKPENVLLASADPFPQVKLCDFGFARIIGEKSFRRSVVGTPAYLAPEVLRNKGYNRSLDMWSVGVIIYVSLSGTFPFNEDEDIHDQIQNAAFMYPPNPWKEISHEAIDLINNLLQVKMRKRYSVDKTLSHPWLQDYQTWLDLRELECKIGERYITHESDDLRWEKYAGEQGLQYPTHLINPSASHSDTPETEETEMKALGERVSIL

[10] = biological target: Tyrosine-protein kinase JAK2 (Homo sapiens) (UniProt O60674); experiment: Inhibition of JAK2 assessed as residual activity at 10 uM by radioactivity assay in presence of 5 uM ATP
[11] = biological target: Mitogen-activated protein kinase 11 (Homo sapiens) (UniProt Q15759); experiment: Inhibition of p38beta MAPK assessed as residual activity at 10 uM by radioactivity assay in presence of 20 uM ATP
Mitogen-activated protein kinase 11 (Homo sapiens), sequence (Q15759 whole entry): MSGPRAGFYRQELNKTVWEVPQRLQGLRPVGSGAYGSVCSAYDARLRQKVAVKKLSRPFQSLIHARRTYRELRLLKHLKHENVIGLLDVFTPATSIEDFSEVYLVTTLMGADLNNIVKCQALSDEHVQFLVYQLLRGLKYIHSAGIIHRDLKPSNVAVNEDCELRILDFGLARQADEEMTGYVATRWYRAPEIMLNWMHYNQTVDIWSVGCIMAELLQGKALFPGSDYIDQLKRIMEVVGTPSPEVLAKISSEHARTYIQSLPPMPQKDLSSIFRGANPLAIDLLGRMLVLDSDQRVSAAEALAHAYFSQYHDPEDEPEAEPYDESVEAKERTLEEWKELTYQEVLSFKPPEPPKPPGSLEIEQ

Serine/threonine-protein kinase Chk1 (Homo sapiens), sequence (O14757 whole entry): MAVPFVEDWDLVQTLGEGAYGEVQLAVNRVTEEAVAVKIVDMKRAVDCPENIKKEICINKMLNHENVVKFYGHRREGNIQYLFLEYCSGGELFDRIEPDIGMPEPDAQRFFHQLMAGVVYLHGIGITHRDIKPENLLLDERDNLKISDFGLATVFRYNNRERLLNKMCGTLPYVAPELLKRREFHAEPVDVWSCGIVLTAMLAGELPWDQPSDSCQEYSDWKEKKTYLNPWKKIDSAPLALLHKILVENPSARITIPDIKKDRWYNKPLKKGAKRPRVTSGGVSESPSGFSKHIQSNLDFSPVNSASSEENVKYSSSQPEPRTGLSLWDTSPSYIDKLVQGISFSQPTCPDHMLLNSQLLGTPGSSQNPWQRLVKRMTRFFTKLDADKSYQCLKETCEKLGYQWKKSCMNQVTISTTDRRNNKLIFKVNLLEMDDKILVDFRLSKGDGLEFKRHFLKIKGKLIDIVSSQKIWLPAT

SMILES: Nc1n[nH]c(N)c1/N=N/c1ccc(O)cc1
- Activity [1]: 98%
- inhibition [2]: Dose-dependent effect
- Activity [3]: 17%
- Activity [4]: 29%
- inhibition [5]: Dose-dependent effect
- Activity [6]: 45%
- Activity [7]: 84%
- IC50 [8]: 20 µM
- IC50 (MCF7): 15 µM
- Activity [9]: 67%
- Activity [10]: 19%
- Activity [11]: 102%
